Consider 25 molecules from ChEMBL document CHEMBL5726154, “Substituted heterocyclic derivative, preparation method and use thereof” (2019).

This experiment deals with T1, N-acylethanolamine-hydrolyzing acid amidase (Homo sapiens, UniProt Q02083).
T1 sequence (Q02083 whole entry): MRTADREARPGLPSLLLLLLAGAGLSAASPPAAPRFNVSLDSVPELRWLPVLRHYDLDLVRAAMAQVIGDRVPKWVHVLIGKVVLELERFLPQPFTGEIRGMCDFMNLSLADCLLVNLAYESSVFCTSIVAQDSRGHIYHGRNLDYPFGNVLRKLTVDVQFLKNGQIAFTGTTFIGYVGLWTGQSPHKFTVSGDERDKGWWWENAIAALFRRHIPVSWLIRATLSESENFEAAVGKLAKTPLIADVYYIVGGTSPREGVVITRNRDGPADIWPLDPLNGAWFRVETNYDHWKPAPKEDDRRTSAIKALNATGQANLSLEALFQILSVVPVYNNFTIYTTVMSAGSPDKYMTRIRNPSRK
Kind of experiment: Determining Endocannabinoid Hydrolase Activity: In the Experimental example, endocannabinoid hydrolases used were Fatty Acid Amide Hydrolase (FAAH) and N-acylethanolamide hydrolyzing acid amidase (NAAA), which were prepared by the method described in the document (PMCID: PMC3423427, PMC3723234, PMC2692831, PMC3382457). The preparation method was as followed: a plasmid (pCDNA3.1/NAAA or pCDNA3.1/FAAH) carrying a whole NAAA/FAAH gene was constructed, wherein the plasmid carried Cytomegalovirus (CMV) promoter and Neomycin selectable gene; the plasmid was transformed into HEK-293 cell via lipid medium, stable cell lines expressing NAAA/FAAH at a high level were obtained by G418 screening and Western-blot method. HEK-293 recombinant cells were cultured and collected, washed with PBS for 2-3 times, and ultrasonically treated in 20 mM Tris-HCl containing 0.32 M sucrose, then repeatedly frozen and thawed twice, and then centrifuged at 4° C., 800 g for 15 min. The supernatant (i.e., the desired protein) was collected, the protein concentration was determined by BCA method, and the protein was diluted to a concentration of 1 mg/mL, and sub-packaged and stored in a refrigerator at −80° C. for further use.In the Experimental example, PBS solution used was prepared as followed: 8 g NaCl, 0.2 g KCl, 1.44 g Na2HPO4, and 0.24 g KH2PO4 were dissolved in 1 L ultrapure water, and the resultant solution was subjected to moist heat sterilization and stored at 4° C.30 μL (1 mg/mL) endocannabinoid hydrolase was added to a sample vial, and 2 μL DMSO (Blank control group) or a different concentration of a test compound (Compounds 1-46 prepared in the Examples according to the invention) was further added. The reaction was carried out at 37° C. for 10 min. 170 μL buffer (the buffer consisted of 50 mM disodium Hydrogen Phosphate, 0.1% Triton X-100, 3 mM DTT, 150 μL) containing enzymatic hydrolysis substrate (the substrate was a heptadecenoyl ethanolamine containing a double bond and 17 carbon atoms, abbreviated as 17:1 FAE) was further added, wherein the concentration of 17:1 FAE was 5 μM. The reaction was carried out at 37° C. for 30 min, and 200 μL methanol solution containing internal standard (the internal standard was margaric acid, at a concentration of 1 nmol) was then added to stop the reaction. LC-MS was used to determine the yield of the hydrolysate 17:1 FA (i.e., a heptadecenoic acid containing a double bond) of 17:1 FAE, then a graph was plotted with Graphpad Prism 5. Thereby, the IC50 of the test compound on endocannabinoid hydrolase was determined.By the method above, the inhibitory effects of the Compounds 1-46 prepared in the invention on NAAA and FAAH were determined.

With `C[C@@H]1COC(=O)N1C(=O)CCCCCc1ccccc1`, the IC50 (commonly the concentration at which inhibition is half-maximal) was 910 nM. The result for `O=C(CCCCCc1c[nH]c2ccccc12)N1CCOC1=O` reads 23500 nM; that for `O=C(CCCCCc1ccc(Cl)cc1)N1CCOC1=O`, 5100 nM. For the molecule `O=C1OCCN1C(=O)c1ccc(OCc2ccccc2)cc1`, the IC50 came out at 3400 nM. In the case of `O=C1OCCN1C(=O)c1cccc(OCc2ccccc2)c1`, the half-maximal inhibitory concentration (IC50) was 78600 nM. `O=C1OCCN1C(=O)c1cccc(-c2ccccc2)c1`: the concentration for half-maximal inhibition (IC50) was found to be 9500 nM. To `O=C(CCCCCC1CCCCC1)N1CCOC1=O` belongs 180 nM; to `O=C1OCCN1C(=O)c1ccc(Oc2cccc(Cl)c2)cc1`, 370 nM. To `O=C(CCCCCCc1ccc(Cl)cc1Cl)N1CCOC1=O` belongs 2200 nM. To `CCCCCCCCCCCCCCCC(=O)N1CCNC1=O` belongs 5400 nM.

Take `O=C(CCCCCC1CCCNC1)N1CCOC1=O` (stereo not given): the IC50 turned out to be 130 nM.

Regarding `O=C(CCCCCCCc1ccccc1)N1CCOC1=O`, the IC50 stood at 21000 nM. Take `O=C(CCCCCc1ccccc1)N1CCOC1=O`: the half-maximal inhibitory concentration (IC50) was found to be 210 nM. As for `O=C(CCCCCc1ccsc1)N1CCOC1=O`, the half-inhibitory concentration (IC50) is 340 nM. Take `CC(=O)C[C@@H]1COC(=O)N1C(=O)CCCCCc1ccc(C)cc1`: the concentration for half-maximal inhibition (IC50) worked out at 450 nM. To `O=C(CCCCc1ccccc1)N1CCOC1=O` belongs 11200 nM; to `O=C(CCCCCc1ccoc1)N1CCOC1=O`, 360 nM; to `O=C(CCCCc1ccc(F)cc1)N1CCOC1=O`, 850 nM. To `O=C(CCCCCc1ccc2ccccc2c1)N1CCOC1=O` belongs 920 nM.

`CCCCCCCCCCCCCCCC(=O)N1CCOC1=O`: the concentration for half-maximal inhibition (IC50) amounted to 46800 nM. The result for `O=C(CCCCc1cccc(Cl)c1)N1CCOC1=O` reads 370 nM; that for `CC(=O)C[C@@H]1COC(=O)N1C(=O)CCCCCc1cccc(C)c1`, 380 nM. As for `O=C(CCCCCc1ccc2cc(F)ccc2c1)N1CCOC1=O`, the 50% inhibitory concentration (IC50) worked out at 5700 nM. To `O=C(CCCCCCc1ccccc1)N1CCOC1=O` belongs 9400 nM; to `O=C(CCCCCc1cccc(F)c1)N1CCOC1=O`, 250 nM.
